Tests used:
[1] = Aqueous solvolysis reactivity followed by UV; format: physicochemical
Description: The reactivity of 217-219 was assessed by following the solvolysis spectrophotometrically by UV at both pH 3 (50% CH3 OH-buffer, buffer=4:1:20 (v/v/v) 0.1 M citric acid, 0.2 M Na2 HPO4, H2 O) and pH 7 (1:1 H2 O--CH3 OH) measuring both the disappearance of the long-wavelength absorption band of the F2 CBI chromophore and the appearance of a short-wavelength absorption band attributable to the ring open products (FIG. 31).
Aqueous Solvolysis Reactivity. pH 3: N-BOC-CCBI (25, 100 μg) was dissolved in CH3 OH (1.5 mL) and mixed with pH 3 aqueous buffer (1.5 mL). The buffer contained 4:1:20 (v:v:v) 0.1 M citric acid, 0.2 M Na2 HPO4 and H2 O, respectively. The solvolysis solution was sealed and kept at 25° C. protected from light. The UV spectrum was measured at regular intervals every 2 h during the first day, every 12 h for another week, and every 24 h for an additional week. The decrease in the long-wavelength absorption at 322 nm and the increase in the short-wavelength absorption at 268 nm were monitored, FIG. 1.
pH 2: Samples of 25 (100 μg) and 26 (50 μg) were dissolved in CH3 OH (1.5 mL) and the solutions were mixed with aqueous buffer (pH 2.05, 1.5 mL). The buffer contained 4:1:20 (v:v:v) 1.0 M citric acid, 0.2 M Na2 HPO4, and H2 O, respectively. Immediately after mixing, the UV spectra of the solutions were measured against a reference solution containing CH3 OH (1.5 mL) and the aqueous buffer (1.5 mL) and these readings were used for the initial absorbance values. The solutions were stoppered, protected from the light, and allowed to stand at 25° C. UV spectra were recorded at regular intervals until constant values were obtained for the long and short wavelength absorbances. The solvolysis rate constants were determined from the slope of the lines obtained from linear least squares treatment of plots of ln[(Af -Ai)/(Af -A)] versus time using the short wavelength measurements for 25 and long wavelength measurements for 26).

[2] = system: w794 duplex DNA; test: DNA alkylation selectivity and efficiency within w794 DNA, thermally-induced strand cleavage and PAGE; format: biochemical, SV40; settings: for DNA alkylation less efficient than 1 or 305: natural enantiomers, 25° C., 24 h
Source text: DNA Alkylation Selectivity and Efficiency. The DNA alkylation properties of the agents were examined within w794 duplex DNA, a 144 base-pair segment of duplex DNA for which comparative results are available for related agents. The alkylation site identification and the assessment of the relative selectivity among the available sites were obtained by thermally-induced strand cleavage of the singly 5' end-labeled duplex DNA after exposure to the agents. Following treatment of the end-labeled duplex DNA with a range of agent concentrations, the unbound agent was removed by EtOH precipitation of the DNA. Redissolution of the DNA in aqueous buffer, thermolysis (100° C., 30 min) to induce strand cleavage at the sites of DNA alkylation, denaturing high resolution polyacrylamide gel electrophoresis (PAGE) adjacent to Sanger dideoxynucleotide sequencing standards, and autoradiography led to identification of the DNA cleavage and alkylation sites. The DNA alkylation reaction selectivities observed under the incubation conditions for the agents detailed herein have proven identical to the alkylation selectivities observed with shorter or extended reaction periods or when the reactions were conducted at different temperatures (37 or 4° C., 0.5-7 d). As discussed below, the rates and efficiencies but not final relative efficiencies of DNA alkylation were altered by changing the reaction temperatures.
DNA Alkylation Properties. […] The DNA alkylation reaction was examined within w794 DNA for which comparative results are available for past agents. The alkylation site identification was obtained by thermal strand cleavage of the singly 5' end-labeled duplex DNA after exposure to the agents. Following treatment of the labeled DNA with a range of agent concentrations, the unbound agent was removed by EtOH precipitation of the DNA. Redissolution of the DNA in aqueous buffer, thermolysis at 100° C. (30 min) to induce depurination and strand cleavage at the adenine N3 or guanine N3 minor groove alkylation sites, denaturing high resolution PAGE adjacent to Sanger sequencing standards and autoradiography provided the DNA cleavage and alkylation sites.
DNA Alkylation Studies: selectivity and Efficiency. General procedures, the preparation of singly ^32 P 5' end-labeled double stranded DNA, the agent binding studies, gel electrophoresis, and autoradiography were conducted according to standard procedures. Eppendorf tubes containing the 5' end-labeled DNA (9 μL) in TE buffer (10 mM Tris, 1 mM EDTA, pH 7.5) were treated with the agent in DMSO (1 μL at the specified concentration). The solution was mixed by vortexing and brief centrifugation and subsequently incubated at 4 or 25° C. for 24 h (natural enantiomers) and 25 or 37° C. (unnatural enantiomers) for 72 h. The covalently modified DNA was separated from unbound agent by EtOH precipitation and resuspended in TE buffer (10 μL). The solution of DNA in an Eppendorf tube sealed with parafilm was warmed at 100° C. for 30 min to induce cleavage at the alkylation sites, allowed to cool to 25° C. and centrifuged. Formamide dye (0.03% xylene cyanol FF, 0.03% bromophenol blue, 8.7% Na2 EDTA 250 mM) was added (5 μL) to the supernatant. Prior to electrophoresis, the sample was denatured by warming at 100° C. for 5 min, placed in an icebath, and centrifuged, and the supernatant (3 μL) was loaded directly onto the gel. Sanger dideoxynucleotide sequencing reactions were run as standards adjacent to the reaction samples. Polyacrylamide gel electrophoresis (PAGE) was run on an 8% sequencing gel under denaturing conditions (8 M urea) in TBE buffer (100 mM Tris, 100 mM boric acid, 0.2 mM Na2 EDTA) followed by autoradiography.
DNA Alkylation of w794 DNA. Eppendorf tubes containing the 5'-end labeled DNA (9 μL) in TE buffer (10 mM Tris, 1 mM EDTA, pH 7.2) were treated with the agent in DMSO (1 μL at the specified concentration). […]

[3] = system: L1210; test: In vitro cytotoxic activity, L1210; settings: N-BOC derivatives
[4] = In vitro cytotoxic activity (cell line not given); format: cell-based; settings: for less potent than ent-(-)-1: unnatural enantiomers
[5] = system: w794 DNA, 5'-AATTA high affinity site; test: Relative rate of DNA alkylation at the w794 5'-AATTA high affinity site; format: biochemical, SV40; settings: 25° C.
Description: Rate of DNA Alkylation. The relative rates of DNA alkylation for the natural enantiommers of CCBI-TMI (35) and CCBI-indole2 (37) versus those of the corresponding CBI and MCBI agents were measured at the single high affinity site in w794, 5'-AATTA. The relative rates earlier studies of DNA alkylation for MCBI-TMI, CBI-TMI, and duocarmycin SA were determined to be quite similar at 4° C., 1.8:1.0:0.9, respectively. […] In prior studies, we have highlighted similar observations with agents that span a much larger range of relative reactivities.
The DNA alkylation selectivity and efficiency of the natural enantiomers of 304-307 were compared with that of 1 in w794 DNA. […] These trends in the overall efficiency of DNA alkylation parallel the relative trends in cytotoxic potency.
(§1) DNA Alkylation Relative Rate of (+)-CCBI-TMI (35), (+)-CBI-TMI, and (+)-MCBI-TMI. Following the procedure detailed above, Eppendorf tubes containing 5' end-labeled w794 DNA (9 μL) in TE buffer (pH 7.5) were treated with (+)-CCBI-TMI (35), (+)-CBI-TMI, or (+)-MCBI-TMI (1 μL, 10^-6 M in DMSO). The solutions were mixed and incubated at 25° C. for 2, 4, 6, 9, 12, 15, and 24 h, respectively. Subsequent isolation of the alkylated DNA by EtOH precipitation, resuspension in TE buffer (10 μL, pH 7.5), thermolysis (30 min, 100° C.), PAGE, and autoradiography were conducted as detailed above. Relative rates for alkylation at the w794 high-affinity 5'-AATTA site were derived from the slopes of the plots of percent integrated optical density (IOD) of the high-affinity alkylation cleavage bands versus time.
as §1, with “(+)-CCBI-indole2 (37), (+)-CBI-indole2,” for “(+)-CCBI-TMI (35), (+)-CBI-TMI,”, “(+)-MCBI-indole2.” for “(+)-MCBI-TMI.”, “(+)-CCBI-indole2 (37), (+)-CBI-indole2, and (+)-MCBI-indole2” for “(+)-CCBI-TMI (35), (+)-CBI-TMI, or (+)-MCBI-TMI”

With `CC(C)(C)OC(=O)N1CC2CC23C1=CC(=O)c1ccccc13` (stereo not drawn) [N-BOC-CBI, reference compound] the “solvolysis stability/reactivity” value [1] was “stable”, the half-life ([1]; 50% ch3oh-buffer, pH 3) was 133 h and the “solvolysis rate constant k” value ([1]; pH 3, 50% CH3OH-buffer) was 1.45e-06 s⁻¹. The “concentration at which both enantiomers alkylate DNA” value ([2]; FIG. 24, 37° C., 48 h) was 10^-2 M and the “relative cytotoxic potency of natural versus unnatural enantiomers” value [3] was 11 ×.
In the case of `COC(=O)c1cc2c([nH]1)C(=O)C=C1N(C(=O)c3cc4cccc(OC)c4[nH]3)CC3CC123` (single isomer, unassigned) [compound 307], the “cytotoxic activity relative to duocarmycin SA or 304 (words)” value [4] is reported as “equipotent with (+)-304”, the “properties relative to duocarmycin SA or 304” value [4] is reported as “properties more analogous to 304” and the “less potent than ent-(-)-1” value [4] is reported as 13-18 ×. For the same compound, the “DNA alkylation less efficient than 1 or 305” value [2] was 5-10 ×.
With `N#Cc1ccc2c(c1)C13CC1CN(C(=O)c1cc4cc(NC(=O)c5cc6ccccc6[nH]5)ccc4[nH]1)C3=CC2=O` (single isomer, unassigned) [compound 37] the “relative rate of DNA alkylation, indole2 series” value [5] was 2.5 ×, the “DNA alkylation more efficient than MCBI or CBI based agents” value [2] was 1.5-2 × and the “DNA alkylation sequence selectivity” value [2] was “stronger preference for the fourth base to be A or T but that preference extended to include a fifth 5' A or T base”.
With `COC(=O)c1cc2c([nH]1)C(=O)C=C1N(C(=O)c3cc4ccc(OC)cc4[nH]3)CC3CC123` (single isomer, unassigned) [compound 306] the “cytotoxic activity relative to duocarmycin SA or 304 (words)” value [4] was “intermediate activity”, the “properties relative to duocarmycin SA or 304” value [4] was “properties more analogous to 304” and the “less potent than ent-(-)-1” value [4] was 13-18 ×. The “DNA alkylation less efficient than 1 or 305” value [2] was 5-10 ×.
For `COC(=O)c1cc2c([nH]1)C(=O)C=C1N(C(=O)c3cc4ccccc4[nH]3)CC3CC123` (single isomer, unassigned) [compound 304], the “reduction in cytotoxic potency relative to duocarmycin SA” value ([4]; natural enantiomers) was 6.5 -fold, the “less potent than ent-(-)-1” value [4] was 13-18 × and the “DNA alkylation less efficient than 1 or 305” value [2] was 20 ×.
With `COC(=O)c1cc2c([nH]1)C(=O)C=C1N(C(=O)c3cc4cc(OC)ccc4[nH]3)CC3CC123` (single isomer, unassigned) [ent-(-)-305] the “cytotoxic activity relative to duocarmycin SA or 304 (words)” value [4] was “more closely approached the full activity of ent-(-)-1”.
In the case of `COc1cc2cc(C(=O)N3CC4CC45C3=CC(=O)c3ccc(C#N)cc35)[nH]c2c(OC)c1OC` (stereo not drawn) [compound 35], the “relative rate of DNA alkylation, TMI series” value ([5]; 10^-6 M) is reported as 2.5 ×, the “DNA alkylation more efficient than MCBI or CBI based agents” value [2] is reported as 1.5-2 × and the “DNA alkylation sequence selectivity” value [2] is reported as “strong preference but not absolute requirement for the fourth 5' base to be A or T versus G or C”.
With `COc1ccc2c(c1)C13CC1CN(C(=O)c1cc4cc(NC(=O)c5cc6ccccc6[nH]5)ccc4[nH]1)C3=CC2=O` (single isomer, unassigned) [MCBI-indole2] the “relative rate of DNA alkylation, indole2 series” value [5] was 1.4 ×.
